Experimental data as given in patent publication US7906480B2, “Use of a parathyroid hormone peptide analogs for the treatment of vaginal atrophy” (priority 2002, dated 2011).
Entries after “also recorded” stand apart in the source; their conditions may differ. Where two headings read alike, the source gives them in different places. No end group written: not given here.

What was measured:
[1] = biological target: T1, PTHPTHrP receptor (Homo sapiens, UniProt Q03431); conditions: cited from earlier work
T1 sequence (Q03431 27-593): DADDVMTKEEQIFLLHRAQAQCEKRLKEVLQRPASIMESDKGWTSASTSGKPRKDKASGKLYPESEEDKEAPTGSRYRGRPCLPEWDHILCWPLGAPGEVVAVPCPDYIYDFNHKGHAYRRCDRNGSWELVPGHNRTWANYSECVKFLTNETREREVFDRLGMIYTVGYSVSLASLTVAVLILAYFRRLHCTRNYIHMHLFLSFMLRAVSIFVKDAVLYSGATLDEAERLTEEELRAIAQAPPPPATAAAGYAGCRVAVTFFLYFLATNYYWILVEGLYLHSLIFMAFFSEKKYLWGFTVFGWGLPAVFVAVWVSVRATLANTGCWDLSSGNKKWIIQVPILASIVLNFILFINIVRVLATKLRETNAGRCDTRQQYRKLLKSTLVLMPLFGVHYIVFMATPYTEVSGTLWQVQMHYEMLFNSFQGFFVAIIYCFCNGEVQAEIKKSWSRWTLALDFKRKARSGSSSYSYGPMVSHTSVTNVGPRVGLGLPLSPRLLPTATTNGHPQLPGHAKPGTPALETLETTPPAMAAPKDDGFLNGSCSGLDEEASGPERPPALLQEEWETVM

[2] = tested on: cultured human keratinocytes; conditions: in vitro, previously shown in U.S. Pat. Nos. 5,527,772, 5,840,690 and 6,066,618; cited from earlier work
[3] = biological target: hPTH-2 receptor (Homo sapiens, UniProt P49190); conditions: cited from earlier work
[4] = tested on: mouse vaginal cells; experiment: tritiated thymidine incorporation into DNA of cultured mouse vaginal epithelial cells; format: cell-based, SKH-1 hairless mice
Procedure: The vaginas from five SKH-1 hairless mice were harvested, washed, and placed in trypsin 1× overnight. From each, the vaginal epithelium was peeled and rinsed in 0.02% EDTA solution and centrifuged to isolate the cells. The cells were rinsed in media, centrifuged, and plated into a 100 mm dish atop a layer of irradiated 3T3 cells containing media as is used for keratinocytes and described above. The cells were grown and passed into 24 well plates for tritiated thymidine incorporation as described above. Cells were treated with either a placebo vehicle or with 1×10^−7 M PTH(1-34) for 24 hours. The cells were harvested and the DNA was extracted and counted using a beta liquid scintillation counter. The amount of tritiated thymidine recovered in the DNA is a measure of DNA synthesis in the cells and is synonymous with cellular proliferative activity.

[5] = biological target: T1, PTHPTHrP receptor; conditions: cited from earlier work; remark: listed apart in the source

hPTH-2 receptor, sequence (P49190 25-550): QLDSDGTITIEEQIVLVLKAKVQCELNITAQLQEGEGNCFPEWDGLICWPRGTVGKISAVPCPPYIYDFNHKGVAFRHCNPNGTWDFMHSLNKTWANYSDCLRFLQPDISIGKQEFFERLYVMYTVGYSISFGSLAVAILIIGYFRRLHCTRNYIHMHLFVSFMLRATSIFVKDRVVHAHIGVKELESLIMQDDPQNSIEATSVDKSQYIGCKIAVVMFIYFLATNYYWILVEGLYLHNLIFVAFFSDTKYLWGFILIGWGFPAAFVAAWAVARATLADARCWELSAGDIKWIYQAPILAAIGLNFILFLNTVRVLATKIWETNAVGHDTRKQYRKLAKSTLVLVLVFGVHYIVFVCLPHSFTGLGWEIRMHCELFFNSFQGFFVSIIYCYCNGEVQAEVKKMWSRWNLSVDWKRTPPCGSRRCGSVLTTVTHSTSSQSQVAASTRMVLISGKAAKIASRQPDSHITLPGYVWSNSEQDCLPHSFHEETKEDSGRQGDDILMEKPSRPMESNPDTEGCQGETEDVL

Substance: [Leu^11,D-Trp^12]hPTHrP(7-34),Amide [[Leu^11,D-Trp^12]hPTHrP(7-34)NH2]
- antagonist function at the hPTH/PTHrP receptor [1]: highly potent antagonist

Substance: [Nle^8,18,Tyr^34]bPTH(7-34),Amide (FXHNLGKHLSSXERVEWLRKKLQDVHNY; norleucine at 8,18; C-terminal amide; Bovine; VARIANT (2)..(12) Xaa = Nle) [[Nle^8,18, Tyr^34]bPTH (7-34)NH2]
- block of inhibition of proliferation or stimulation of differentiation by hPTH(1-34), hPTHrP(1-34), or 1,25(OH)2D3 [2]: block the inhibition of proliferation or stimulation of differentiation

Substance: [Trp^23]hPTHrP(1-36) (AVSEHQLLHDKGKSIQDLRRRFWLHHLIAEIHTAEI; listed as Homo sapiens) [[Trp^23]hPTHrP (1-36)]
- antagonist function at the PTH-2 receptor [3]: hPTH-2 receptor antagonist
- antagonist function at the PTH-2 receptor ([3]; listed as [Trp^23]PTHrP(1-36)): particularly potent antagonist

Substance: [Tyr^34]bPTH(7-34),Amide (FMHNLGKHLSSMERVEWLRKKLQDVHNY-NH2) [[Tyr^34]bPTH (7-34)NH2]
- block of inhibition of proliferation or stimulation of differentiation by hPTH(1-34), hPTHrP(1-34), or 1,25(OH)2D3 [2]: block the inhibition of proliferation or stimulation of differentiation

Substance: bPTHrP(5-36) (HQLLHDKGKSIQDLRRRFFLHHLIAEIHTAEI; listed as Homo sapiens) [printed only in b18]
- block of inhibition of proliferation or stimulation of differentiation by hPTH(1-34), hPTHrP(1-34), or 1,25(OH)2D3 [2]: block the inhibition of proliferation or stimulation of differentiation

Substance: hPTH(1-34) (SVSEIQLMHNLGKHLNSMERVEWLRKKLQDVHNF; listed as Homo sapiens)
- incorporation of tritiated thymidine into the DNA (DNA synthesis) ([4]; 1×10^−7 M for 24 hours, versus placebo vehicle, FIG. 1): increased
- vaginal cell growth ([4]; conclusion from FIG. 1, mouse vaginal cells in vitro): can stimulate vaginal cell growth; also recorded: can stimulate vaginal cell-growth

Substance: hPTH(5-34) (IQLMHNLGKHLNSMERVEWLRKKLQDVHNF; listed as Homo sapiens)
- block of inhibition of proliferation or stimulation of differentiation by hPTH(1-34), hPTHrP(1-34), or 1,25(OH)2D3 [2]: block the inhibition of proliferation or stimulation of differentiation

Substance: hPTH(5-36) (IQLMHNLGKHLNSMERVEWLRKKLQDVHNFVA; listed as Homo sapiens)
- block of inhibition of proliferation or stimulation of differentiation by hPTH(1-34), hPTHrP(1-34), or 1,25(OH)2D3 [2]: block the inhibition of proliferation or stimulation of differentiation

Substance: hPTH(7-31) (LMHNLGKHLNSMERVEWLRKKLQDV; listed as Homo sapiens)
- block of inhibition of proliferation or stimulation of differentiation by hPTH(1-34), hPTHrP(1-34), or 1,25(OH)2D3 [2]: block the inhibition of proliferation or stimulation of differentiation

Substance: hPTH(15-34) (LNSMERVEWLRKKLQDVHNF; listed as Homo sapiens)
- block of binding of hPTH(1-34) or hPTHrP(1-34) to the PTHPTHrP receptor [5]: can block the binding

Substance: hPTHrP(5-34)
- block of inhibition of proliferation or stimulation of differentiation by hPTH(1-34), hPTHrP(1-34), or 1,25(OH)2D3 [2]: block the inhibition of proliferation or stimulation of differentiation

Substance: hPTHrP(7-31) (LLHDKGKSIQDLRRRFFLHHLIAEI; listed as Homo sapiens)
- block of inhibition of proliferation or stimulation of differentiation by hPTH(1-34), hPTHrP(1-34), or 1,25(OH)2D3 [2]: block the inhibition of proliferation or stimulation of differentiation

Substance: hPTHrP(15-34) (IQDLRRRFFLHHLIAEIHTA; listed as Homo sapiens)
- block of binding of hPTH(1-34) or hPTHrP(1-34) to the PTHPTHrP receptor [5]: can block the binding
